Assay results: PMC6716773 (Journal of Medicinal Chemistry, 2018)
pIC50, pKi: −log10 of the molar value. Blank lines part the entries; values can stand above or below the compound they belong to.

Assays:
human A2A receptors = human A2A receptors (Homo sapiens, UniProt P29274); experiment: Functional cAMP accumulation assay with NECA; format: cell-based; details: response to agonist NECA in presence of compound; CHO cells
human recombinant MAO-B = molecular target: T1, human recombinant MAO-B (Homo sapiens, UniProt P27338); experiment: MAO-B enzyme assay; format: biochemical; details: Triton X-100, 0.01%; colloidal aggregation control
T1 sequence (P27338 1-520): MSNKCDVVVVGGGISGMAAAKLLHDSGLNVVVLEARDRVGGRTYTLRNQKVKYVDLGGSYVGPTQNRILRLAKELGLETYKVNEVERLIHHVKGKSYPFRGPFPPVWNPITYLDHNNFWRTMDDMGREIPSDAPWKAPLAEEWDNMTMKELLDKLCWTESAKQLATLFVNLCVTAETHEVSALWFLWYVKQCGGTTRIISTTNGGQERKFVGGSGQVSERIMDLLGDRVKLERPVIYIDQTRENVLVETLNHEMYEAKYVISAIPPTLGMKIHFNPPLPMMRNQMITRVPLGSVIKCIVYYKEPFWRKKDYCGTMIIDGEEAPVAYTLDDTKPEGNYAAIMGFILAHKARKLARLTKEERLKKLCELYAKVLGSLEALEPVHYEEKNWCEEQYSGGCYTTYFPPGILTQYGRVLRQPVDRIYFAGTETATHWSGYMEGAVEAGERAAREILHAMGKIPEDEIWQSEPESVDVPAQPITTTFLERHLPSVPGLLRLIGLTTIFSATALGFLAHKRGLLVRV

[1] = molecular target: A2A adenosine receptor (A2AAR) (Homo sapiens, UniProt P29274); experiment: A2AAR competition binding; details: for better A2AAR binding affinity than compound 1: relative to compound 1
Sequence of A2A adenosine receptor (A2AAR) (P29274 whole entry): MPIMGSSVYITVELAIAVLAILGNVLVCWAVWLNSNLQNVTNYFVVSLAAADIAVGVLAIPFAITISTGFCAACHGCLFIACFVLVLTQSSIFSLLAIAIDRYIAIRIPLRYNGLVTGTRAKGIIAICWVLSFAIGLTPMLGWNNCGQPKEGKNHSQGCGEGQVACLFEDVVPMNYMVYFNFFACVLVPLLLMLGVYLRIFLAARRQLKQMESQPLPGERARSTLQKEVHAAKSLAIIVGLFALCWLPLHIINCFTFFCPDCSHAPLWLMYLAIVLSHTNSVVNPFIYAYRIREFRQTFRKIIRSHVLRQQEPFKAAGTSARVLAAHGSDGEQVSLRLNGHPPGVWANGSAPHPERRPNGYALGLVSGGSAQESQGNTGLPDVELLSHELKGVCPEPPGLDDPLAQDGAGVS

[2] = tested on: differentiated dopaminergic neuronal-like SH-SY5Y cells; experiment: Cell viability; format: cell-based, human; details: 20 µM 6-OHDA, 24 h; resazurin
MAO-B = details: read-out: MAO-B IC50; cited from earlier work
A2AAR = details: read-out: A2AAR Ki; cited from earlier work

Sequence of human A2A receptors (P29274 whole entry): as above

SMILES: COc1cccc(CO)c1 [Compound 3k]
activity at the A2AAR (in words) [1]: inactive

SMILES: COc1cccc2nc(NC(=O)c3ccccc3)[nH]c12 [Compound 1b]
better A2AAR binding affinity than compound 1 [1]: 5 fold

SMILES: NCCc1cc(O)c(O)cc1O [Compound 6-OHDA, 6-hydroxydopamine]
reduction in cell viability [2]: 37 ± 1.3%

SMILES: Cn1c(=O)c2c(nc(/C=C/c3cccc(Cl)c3)n2C)n(C)c1=O [CSC, 8-(3-chlorostyryl)caffeine]
pIC50 (MAO-B): 7.74
pKi (A2AAR): 7.42

SMILES: O=C(Nc1nc2cccc(Cl)c2[nH]1)c1ccccc1 [Compound 1a]
efficacy at the A2AAR in cAMP accumulation assay (human A2A receptors): antagonists
better A2AAR binding affinity than compound 1 [1]: 27 fold

SMILES: O=C(Nc1nc2ccccc2[nH]1)c1ccccc1 [Compound 1]
change in MAO-B IC50 values in the presence of detergent (human recombinant MAO-B): no significant changes

More lines, now with the values ahead:

efficacy at the A2AAR in cAMP accumulation assay (human A2A receptors): antagonists
SMILES: COc1cccc(COC(=O)c2nn(-c3ccccc3)nc2N)c1 [Compound 3]

change in MAO-B IC50 values in the presence of detergent (human recombinant MAO-B): no significant changes
SMILES: Cc1ccc(COC(=O)c2nn(-c3ccccc3)nc2N)cc1 [Compound 3a]

activity at the A2AAR (in words) [1]: inactive
SMILES: Nc1nn(-c2ccccc2)nc1C(=O)O [Compound 3j]
